# Key:
# [1] = biological target: T1, extracellular domain of human pGC-A (Homo sapiens, UniProt P16066); assay: SPR binding of compound 19 to pGC-A extracellular domain (Example 5)
# T1 construct: the extracellular domain of human pGC-A was used
# T1 sequence (P16066 33-473 limits assumed): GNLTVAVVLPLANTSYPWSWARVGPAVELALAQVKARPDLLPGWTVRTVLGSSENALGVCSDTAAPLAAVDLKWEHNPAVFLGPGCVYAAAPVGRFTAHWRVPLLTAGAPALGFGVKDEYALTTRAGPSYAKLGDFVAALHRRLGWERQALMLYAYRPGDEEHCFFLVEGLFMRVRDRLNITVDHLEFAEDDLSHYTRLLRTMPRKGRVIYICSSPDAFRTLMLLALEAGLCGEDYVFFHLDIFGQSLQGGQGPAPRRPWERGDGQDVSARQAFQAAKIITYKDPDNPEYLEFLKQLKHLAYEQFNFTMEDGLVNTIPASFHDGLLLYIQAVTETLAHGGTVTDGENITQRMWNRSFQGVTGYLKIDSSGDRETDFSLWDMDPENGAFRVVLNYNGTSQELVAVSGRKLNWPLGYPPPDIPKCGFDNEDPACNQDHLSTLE
# Experimental: Binding Studies of compound 19 to Human pGC-A Receptor: Surface plasmon resonance (SPR) binding analysis was performed by employing the highly sensitive Biosensing Instrument 4500 system for small molecule binding. For these studies the extracellular domain of human pGC-A was used together with compound 19 at increasing concentrations.
# [2] = system: spontaneously hypertensive rats (SHRs); assay: IV bolus in spontaneously hypertensive rats; assay type: in vivo, rat; conditions: SHR, single IV bolus 10 mg/kg
# Experimental: Methods (IV Bolus Administration of Compound 19 in (SHRs): the cGMP generating and blood pressure lowering actions of a single IV bolus dose of Compound 19 at 10 mg/kg in spontaneously hypertensive rats (SHRs; n=2; 12 weeks old; Envigo, East Millstone, N.J.) were investigated. Studies were performed in accordance with the Animal Welfare Act and with approval of the Mayo Clinic Institutional Animal Care and Use Committee.
# SHRs were anesthetized in an induction chamber with inhaled isoflurane 3%.
# During this brief state of anesthesia, SHRs were administered Inactin (100 mg/kg; IP to induce anesthesia and then maintained with by additional Inactin 100 mg/kg (IP), as required. Once adequate anesthesia was achieved, the anesthetized SHRs were subjected to vessel and bladder cannulation for Compound 19 administration, blood sampling and urine collection. A polyethylene (PE)-50 tube catheter was placed into the jugular vein for Compound 19 intravenous (IV) administration. The carotid artery was cannulated with a PE-50 tube catheter for blood pressure monitoring and blood sampling/collection. The bladder was accessed and cannulated with a PE-50 tube catheter for passive urine collection. After completion of the above procedural set up, a 45-minute equilibration period was performed that included a 30-minute baseline urine collection and a single baseline blood sample was performed.
# [3] = hepatic microsomal stability, mouse; assay type: in vitro ADME
# [4] = system: primary human renal proximal tubular cells (HRPTCs); assay: cGMP generation in primary human renal proximal tubular cells; assay type: cell-based
# Description: HRPTCs represent an important human cell line as renal tubular injury and apoptosis leads to impaired renal function and structure.
# [5] = hepatic microsomal stability, human; assay type: in vitro ADME
# [6] = system: primary human cardiomyocytes (HCMs); assay: cGMP generation in primary human cardiomyocytes; assay type: cell-based
structure (smiles),measurement,setting,value
CN(C)CCN1CCCC(C(=O)Nc2nc3c(F)cc(F)cc3s2)C1 (stereo not drawn) [Compound 19],binding to human pGC-A,[1]; Response (RU) increasing with concentration,clearly validated
same,Kd,[1]; compound 2.5 to 20 μM with 0.25 μM pGC-A receptor extracellular domain,4.1 µM
same,diuresis (urine volume),[2],increase in diuresis
same,mean arterial pressure,[2]; 0-60 min,decrease in mean arterial pressure
same,plasma cGMP,[2]; compared to baseline,increase
same,urinary cGMP,[2]; compared to baseline,increase
same,Hepatic Microsomal Stability (% remaining at 1 h),[3],83.6%
same,cGMP generation,"[4]; HRPTCs, 1, 5 or 10 μM compound in the presence of ANP (10^−10 M)",clear increase in cGMP generation
same,cGMP generation,"[4]; HRPTCs, compound alone at similar dose, no ANP",did not generate cGMP generation
same,Hepatic Microsomal Stability (% remaining at 1 h),[5],98.2%
same,cGMP generation,"[6]; HCMs, 1, 5 or 10 μM compound in the presence of ANP (10^−10 M)",clear increase in cGMP generation
same,cGMP generation,"[6]; HCMs, compound alone at similar dose, no ANP",did not generate cGMP generation
